Results: publication PMC7315563, “Bioactive fluorenes. Part III: 2,7-dichloro-9H-fluorene-based thiazolidinone and azetidinone analogues as anticancer and antimicrobial against multidrug resistant strains agents” (BMC Chemistry, 2020)
Converted amounts (≈) assume the structure as drawn.

Experiments:
[1] = test system: A549 human lung cancer cells; assay: cell viability assay (MTT); assay type: cell-based; settings: 24 h; for viability at 1 µg/mL: read-out: Validity (%) for sample concentrations (µg/mL) 1; for viability at 10 µg/mL: read-out: Validity (%) for sample concentrations (µg/mL) 10; for viability at 31.25 µg/mL: read-out: Validity (%) for sample concentrations (µg/mL) 31.25; for viability at 62.5 µg/mL: 62.50 µg/mL, read-out: Validity (%) for sample concentrations (µg/mL) 62.50; for viability at 125 µg/mL: read-out: Validity (%) for sample concentrations (µg/mL) 125; for viability at 250 µg/mL: read-out: Validity (%) for sample concentrations (µg/mL) 250; for viability at 500 µg/mL: read-out: Validity (%) for sample concentrations (µg/mL) 500; for viability at 1000 µg/mL: read-out: Validity (%) for sample concentrations (µg/mL) 1000
Description: WI-38 normal lung fibroblast cells, A549 lung cancer cells, and MDA-MB-231 breast cancer cells were obtained from VACSERA—Cell Culture Unit, Cairo, Egypt. The cell lines were originally obtained from the American Tissue Culture Collection (ATCC). WI-38, A549, and MDA-MB-231 cell lines were cultured in RPMI-1640 medium supplemented with 10% inactivate fetal bovine serum (FBS) and 1% penicillin/streptomycin were bought (Gibco, Invitrogen, CA). WI-38, A549, and MDA-MB-231 cells were seeded into 96-well plates (at a density of 5000 cells/well). […] Cell viability was then assessed using the MTT assay (Sigma Aldrich, St. Louis, MO, USA), and the absorbance was read at 570 nm using an ELISA microplate reader (Molecular Devices, Downingtown, PA, USA).

[2] = test system: WI-38 human normal fibroblast cells; assay: cell viability assay (MTT); assay type: cell-based; settings: 24 h; for viability at 31.25 µg/mL: read-out: Validity (%) for sample concentrations (µg/mL) 31.25; for viability at 62.5 µg/mL: 62.50 µg/mL, read-out: Validity (%) for sample concentrations (µg/mL) 62.50; for viability at 125 µg/mL: read-out: Validity (%) for sample concentrations (µg/mL) 125; for viability at 250 µg/mL: read-out: Validity (%) for sample concentrations (µg/mL) 250; for viability at 500 µg/mL: read-out: Validity (%) for sample concentrations (µg/mL) 500
Description: (§1) WI-38 normal lung fibroblast cells, A549 lung cancer cells, and MDA-MB-231 breast cancer cells were obtained from VACSERA—Cell Culture Unit, Cairo, Egypt. The cell lines were originally obtained from the American Tissue Culture Collection (ATCC). WI-38, A549, and MDA-MB-231 cell lines were cultured in RPMI-1640 medium supplemented with 10% inactivate fetal bovine serum (FBS) and 1% penicillin/streptomycin were bought (Gibco, Invitrogen, CA). WI-38, A549, and MDA-MB-231 cells were seeded into 96-well plates (at a density of 5000 cells/well). On the following day, cells were treated with different concentrations (0, 1, 10, 31.25, 62.5, 125, 250, 500 µg/mL) of 16 fluorene derivatives in fresh medium and incubated for another 24 h. Cell viability was then assessed using the MTT assay (Sigma Aldrich, St. Louis, MO, USA), and the absorbance was read at 570 nm using an ELISA microplate reader (Molecular Devices, Downingtown, PA, USA).

[3] = test system: MDA-MB-231 human breast cancer cells; assay: cell viability assay (MTT); assay type: cell-based; settings: 24 h; for viability at 1 µg/mL: read-out: Validity (%) for sample concentrations (µg/mL) 1; for viability at 10 µg/mL: read-out: Validity (%) for sample concentrations (µg/mL) 10; for viability at 31.25 µg/mL: read-out: Validity (%) for sample concentrations (µg/mL) 31.25; for viability at 62.5 µg/mL: read-out: Validity (%) for sample concentrations (µg/mL) 62.5; for viability at 125 µg/mL: read-out: Validity (%) for sample concentrations (µg/mL) 125; for viability at 250 µg/mL: read-out: Validity (%) for sample concentrations (µg/mL) 250; for viability at 500 µg/mL: read-out: Validity (%) for sample concentrations (µg/mL) 500
Description: as §1

[4] = test system: Escherichia coli (E. coli), multidrug resistant clinical isolate; assay: agar well diffusion assay; assay type: cell-based; settings: 24 h, 500 µg/mL of tested compound
Description: (§2) All microbial strains were kindly provided from the department of Medical Microbiology and Immunology faculty of Medicine Assiut University, these clinical isolates were obtained from clinical cases of infections admitted to Assiut University hospital as urinary tract infections, corneal ulcers, bacterial and fungal pneumonia, otomycosis, oral thrush and wound infections.
(§3) The clinical isolates used were multidrug resistant strains, they were resistant to β lactam (penicillin, amoxacillin, oxacillin), cephalosporins (cefazolin, cefaclor and cefepime) and macrolides (erythromycin and clarithromycin), they included Gram positive bacteria as Staphylococcus aureus (S. aureus), Methicillin-resistant Staphylococcus aureus (MRSA), Streptococcus pneumoniae (S. pneumoniae), and Gram negative bacteria as Escherichia coli (E. coli), Klebsiella pneumoniae (K. pneumoniae), Pseudomonas aeruginosa (P. aeruginosa), and Acinetobacter baumannii (A. baumannii). The fungal strains that were tested are Aspergillus flavus (A. flavus), A. niger (A. niger) and Candida albicans (C. albicans).
(§4) The antimicrobial activity of the fluorene derivatives was initially evaluated by agar well diffusion assay. Mueller–Hinton agar (CM0337) was poured into Petri dishes at 50–60 °C and left to solidify for 15 min. Subsequently, overnight microbial suspensions of tested strains was adjusted to turbidity of 0.5 McFarland Standard, which equals to 1–2 × 10^8 CFU/mL for bacteria and 1–5 × 10^6 for fungi. The microbial inoculums were then diluted in 1:100 ratio in case of bacteria and 1:10 ratio in case of fungi in order to get 1–5 × 10^5 CFU/mL. a sterile cotton swab was dipped into the adjusted microbial suspension and the Mueller–Hinton agar plates were inoculated by evenly streaking cotton swab over the agar medium. Then wells with a diameter of 0.5 cm were cut in the medium with a sterile cork borer. Stock solutions of the flourene derivatives were diluted in DMSO 1% to get 500 μg/mL concentrations. The tested flourene derivatives and controls (50 μL) were dispensed into the wells. The plates were incubated for 24 h at 37 °C for bacteria and C. albicans while at 25 °C for A. falvus and A. niger. The diameters of zones of inhibition (ZOI) around the wells were measured in mm. Following control agents were used: positive control agents—vancomycin (50 μg/mL) for Gram positive bacteria, gentamicin (10 μg/mL) (for Gram negative bacteria) and fluconazole 25 μg/mL for fungi and negative control agent is 1% DMSO.

[5] = test system: Klebsiella pneumoniae (K. pneumoniae), multidrug resistant clinical isolate; assay: agar well diffusion assay; assay type: cell-based; settings: 24 h, 500 µg/mL of tested compound
Description: as §2, §3, §4

[6] = test system: Staphylococcus aureus (S. aureus), multidrug resistant clinical isolate; assay: agar well diffusion assay; assay type: cell-based; settings: Staphylococcus aureus; S. aureus; 500 µg/mL of tested compound; 24 h
Description: as §2, §3, §4

MDA-MB-231 cells = assay: FACS analysis, Annexin V and PI staining; assay type: cell-based, human; settings: 24 h, 5g 500, 6c 105, 6d 170, 6k 130 µg/mL
Description: To uncover the mechanism of cell death for the compounds 5h, 6c, 6d and 6k on WI-38, A549, and MDA-MB-231 cells; Annexin v and propedium Iodide (PI) were used. In brief, WI-38, A549, MDA-MB-231 cells were cultured in 10 tissue culture dish with initial number 4 × 10^5 cell/Ml in RPMI growth media. […] After 24 h incubations, cells were washed and trypsinized and suspended in 50 μL 1X Annexin v binding buffer followed by adding 5 μL FITC Annexin V and incubated for 15 min at room temperature then 5 μL of PI were added to each tube. Finally, 400 μL of 1X Annexin v binding buffer were added to each tube and analyzed using Becton-Dickinson FACS Caliber.

WI-38 cells = assay: FACS analysis, Annexin V and PI staining; assay type: cell-based, human; settings: 24 h, 5g 1000 µg/mL, 6c, 6d, 6k 500 µg/mL
Description: (§5) To uncover the mechanism of cell death for the compounds 5h, 6c, 6d and 6k on WI-38, A549, and MDA-MB-231 cells; Annexin v and propedium Iodide (PI) were used. In brief, WI-38, A549, MDA-MB-231 cells were cultured in 10 tissue culture dish with initial number 4 × 10^5 cell/Ml in RPMI growth media. In the following day, cells were treated with 6c, 6d and 6k as the following; (0.0, 500 μg/mL form each drug for WI-38 treatment, 0.0, 85, 117 and 200 μg/mL; respectively, for […] and 0.0, 250 from each for MDA-MB-231 cells treatment). After 24 h incubations, cells were washed and trypsinized and suspended in 50 μL 1X Annexin v binding buffer followed by adding 5 μL FITC Annexin V and incubated for 15 min at room temperature then 5 μL of PI were added to each tube. Finally, 400 μL of 1X Annexin v binding buffer were added to each tube and analyzed using Becton-Dickinson FACS Caliber.

A549 cells = assay: FACS analysis, Annexin V and PI staining; assay type: cell-based, human; settings: 24 h, 5g 500, 6c 85, 6d 117, 6k 200 µg/mL
Description: as §5

IC50 [1] [µg/mL] | SMILES | viability at 1 µg/mL [1] [%] | viability at 10 µg/mL [1] [%] | viability at 31.25 µg/mL [1] [%] | viability at 62.5 µg/mL [1] [%] | viability at 125 µg/mL [1] [%] | viability at 250 µg/mL [1] [%] | viability at 500 µg/mL [1] [%] | viability at 1000 µg/mL [1] [%] | viability at 31.25 µg/mL [2] [%] | viability at 62.5 µg/mL [2] [%] | viability at 125 µg/mL [2] [%] | viability at 250 µg/mL [2] [%] | viability at 500 µg/mL [2] [%] | IC50 [2] [µg/mL] | viability at 1 µg/mL [3] [%] | viability at 10 µg/mL [3] [%] | viability at 31.25 µg/mL [3] [%] | viability at 62.5 µg/mL [3] [%] | viability at 125 µg/mL [3] [%] | further results
801 (≈ 1530 µM) | O=C1C(Cl)C(C=Cc2ccccc2)N1c1nc(-c2cc(Cl)cc3c2-c2ccc(Cl)cc2C3)cs1 (stereo not drawn) [6i, 3-Chloro-1-(4-(2,7-dichloro-9H-fluoren-4-yl)thiazol-2-yl)-4-styrylazetidin-2-one] | 96.6 | 91.9 | 89.4 | 78.1 | 76.3 | 67.9 | 53.3 | 49.4 | 83.1 | 76.5 | 56.5 | 49.2 | 39.2 | 240 (≈ 458 µM) | 94.2 | 89.1 | 66.8 | 55.9 | 49.2 | viability at 250 µg/mL [3]: 24.3%; viability at 500 µg/mL [3]: 18.2%; IC50 [3]: 120 µg/mL (≈ 229 µM); melting point: 110 to 112 °C; zone of inhibition at 500 µg/mL [4]: 12 mm; zone of inhibition at 500 µg/mL [5]: 3 mm
380 (≈ 695 µM) | O=C1CSC(c2ccnc3ccccc23)N1c1nc(-c2cc(Cl)cc3c2-c2ccc(Cl)cc2C3)cs1 (stereo not drawn) [5n, 3-(4-(2,7-Dichloro-9H-fluoren-4-yl)thiazol-2-yl)-2-(quinolin-4-yl)thiazolidin-4-one] | 94.2 | 91.2 | 83.1 | 78.6 | 70.7 | 58.9 | 27.3 | 8.02 | 54.3 | 51.5 | 50.8 | 46.4 | 40.5 | 130 (≈ 238 µM) | 98.7 | 91 | 92.8 | 90.6 | 76.8 | viability at 250 µg/mL [3]: 58.7%; viability at 500 µg/mL [3]: 27.2%; IC50 [3]: 315 µg/mL (≈ 576 µM); melting point: 204 to 206 °C; zone of inhibition at 500 µg/mL [6]: 7 mm; zone of inhibition at 500 µg/mL [5]: 5 mm
572 (≈ 1060 µM) | O=C(O)c1ccc(C2SCC(=O)N2c2nc(-c3cc(Cl)cc4c3-c3ccc(Cl)cc3C4)cs2)cc1 (stereo not drawn) [5g, 4-(3-(4-(2,7-Dichloro-9H-fluoren-4-yl)thiazol-2-yl)-4-oxothiazolidin-2-yl)benzoic acid] | 93.7 | 90.3 | 88.7 | 78.6 | 84.1 | 75.7 | 56.3 | 16.8 | 96.7 | 95.1 | 90.2 | 85.8 | 79.2 | > 500 | 92.6 | 87.3 | 80.9 | 72.2 | 67.7 | viability at 250 µg/mL [3]: 63.2%; viability at 500 µg/mL [3]: 58.5%; IC50 [3]: > 500 µg/mL; apoptotic cell death (of total cell number) (MDA-MB-231 cells): 1.34%; necrotic cell death (of total cell number) (MDA-MB-231 cells): 14.1%; apoptotic cell death (of total cell number) (WI-38 cells): 1.5%; necrotic cell death (of total cell number) (WI-38 cells): 15.8%; apoptotic cell death (of total cell number) (A549 cells): 1.25%; necrotic cell death (of total cell number) (A549 cells): 16.7%; zone of inhibition at 500 µg/mL [6]: 10 mm
185 (≈ 372 µM) | O=C1C(Cl)C(c2ccccc2)N1c1nc(-c2cc(Cl)cc3c2-c2ccc(Cl)cc2C3)cs1 (stereo not drawn) [6a, 3-Chloro-1-(4-(2,7-dichloro-9H-fluoren-4-yl)thiazol-2-yl)-4-phenylazetidin-2-one] | 98.6 | 89.1 | 79.2 | 75.9 | 70.3 | 30.7 | 20.8 | 14.4 | 71.1 | 66.1 | 59.1 | 49.1 | 47.1 | 241 (≈ 484 µM) | 99.4 | 92.4 | 90.7 | 83.1 | 78.3 | viability at 250 µg/mL [3]: 69.6%; viability at 500 µg/mL [3]: 63.2%; IC50 [3]: > 500 µg/mL; melting point: 118 to 120 °C; zone of inhibition at 500 µg/mL [4]: 13 mm; zone of inhibition at 500 µg/mL [6]: 5 mm
